# Results published in patent US8710049B2, “Diaminocyclohexane compounds and uses thereof” (Bristol-Myers Squibb Company, priority 2011, dated 2014).
# pEC50: −log10 of the molar value.
# Molecular target: T1, Y4 receptor (Homo sapiens, UniProt P50391)
# Test: not given
# Conditions: background statement; cited from earlier work
# T1 sequence (P50391 whole entry): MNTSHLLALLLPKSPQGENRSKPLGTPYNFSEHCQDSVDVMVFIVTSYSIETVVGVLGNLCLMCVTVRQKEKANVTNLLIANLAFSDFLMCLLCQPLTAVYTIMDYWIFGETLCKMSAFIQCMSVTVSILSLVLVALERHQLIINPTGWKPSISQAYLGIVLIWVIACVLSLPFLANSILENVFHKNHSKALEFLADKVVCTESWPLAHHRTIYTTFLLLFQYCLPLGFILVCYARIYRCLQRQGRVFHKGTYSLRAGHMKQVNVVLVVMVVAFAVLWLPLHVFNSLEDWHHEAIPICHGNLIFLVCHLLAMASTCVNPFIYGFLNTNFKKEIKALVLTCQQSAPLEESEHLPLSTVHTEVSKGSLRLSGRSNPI
row,Compound,affinity for Y4 receptor
1,"PYY: naturally secreted 36 amino acid, C-terminally amidated PP-fold peptide",nanomolar affinity

# Molecular target: T1, Y4 receptor
# Test: NPY4 cAMP HTRF Agonist Assay
# Assay type: cell-based
# Design: expressed in transfected cells
# Conditions: human Y4 stable CHO clonal cells; inhibitory cAMP assay with Forskolin and IBMX, 30 minutes at room temperature
# Method: NPY4 cAMP HTRF Agonist Assay
# The functionality of the compound at Y4 receptor was analyzed using an inhibitory cAMP assay (CISBIO, HTRF cAMP kit #62AM4PEC) to measure the Gi activation by Y4 agonism.
# The human Y4 stable CHO clonal cells were maintained in culture medium (F-12 containing 10% Fetal Bovine Serum, […] GENETICIN®, […] Zeocin). Before the experiment, 5 μL of 1 uM Forskolin (Sigma, # F6886) and 100 uM IBMX (Sigma, #15879) in PBS buffer were added into 384-well plates (PE, Proxi-plate) that were pre-dotted with […] compounds. The cells were removed from the flasks by Cellstripper, counted and adjusted to 1.0×10^6 cells/mL in PBS buffer, and added 5 μL/well (5000 cells/well) into the above 384-well plates. The cells were then covered and incubated for 30 minutes at room temperature. After incubation, 5 μL/well of D2-conjugate in HTRF lysis buffer was first added, followed by adding 5 μL/well of anti-cAMP Cryptate in HTRF lysis buffer. The plates were incubated for another 1 hour at room temperature and read on the EnVision Multilabel Plate Reader.
row,pEC50,Compound
1,7.09,"O=C(Nc1ccccc1)N[C@@H]1CCCC[C@H]1N[C@H]1CCCN(c2ccc([N+](=O)[O-])cc2)C1 [Example 1, 1-((1R,2R)-2-((S)-1-(4-Nitrophenyl)piperidin-3-ylamino)cyclohexyl)-3-phenyl urea]"
2,7.34,"O=C(Nc1ccc(OC(F)(F)F)cc1)N[C@@H]1CCCC[C@H]1N[C@H]1CCCN(c2ccc([N+](=O)[O-])cc2)C1 [Example 3, 1-((1R,2R)-2-((S)-1-(4-Nitrophenyl)piperidin-3-ylamino)cyclohexyl)-3-(4-(trifluoromethoxy)phenyl)urea]"
3,7.60,"O=C(Nc1ccc(OC(F)(F)F)cc1)N[C@@H]1CCCC[C@H]1N[C@H]1C[C@@H]2C[C@H]1N(c1ccc([N+](=O)[O-])cc1)C2 [Example 4, 1-((1R,2R)-2-((1R,4R,6S)-2-(4-Nitrophenyl)-2-azabicyclo[2.2.1]heptan-6-ylamino)cyclohexyl)-3-(4-(trifluoromethoxy)phenyl)urea]"
4,7.14,"Cc1nnc(-c2ccc(N3CCC[C@H](N[C@@H]4CCCC[C@H]4NC(=O)OCc4ccccc4)C3)cc2)o1 [Example 7, Benzyl (1R,2R)-2-((S)-1-(4-(5-methyl-1,3,4-oxadiazol-2-yl)phenyl)piperidin-3-ylamino)cyclohexylcarbamate]"
5,6.48,"Cn1cc(CC(=O)N[C@@H]2CCCC[C@H]2N[C@H]2CCCN(c3ccc(C#N)cc3)C2)c2ccccc21 [Example 10, N-((1R,2R)-2-((S)-1-(4-Cyanophenyl)piperidin-3-ylamino)cyclohexyl)-2-(1-methyl-1H-indol-3-yl)acetamide]"
6,7.14,"N#Cc1ccc(N2CCC[C@H](N[C@@H]3CCCC[C@H]3NC(=O)OCc3ccc(OC(F)(F)F)cc3)C2)cc1 [Example 16, 4-(Trifluoromethoxy)benzyl (1R,2R)-2-((S)-1-(4-cyanophenyl)piperidin-3-ylamino)cyclohexylcarbamate]"
7,6.27,"CCOC(=O)c1ccc(N2CC[C@H](N[C@@H]3CCCC[C@H]3NC(=O)OCc3ccccc3)C2)cc1 [Example 32, Ethyl 4-((S)-3-((1R,2R)-2-(benzyloxycarbonylamino)cyclohexylamino)pyrrolidin-1-yl)benzoate]"
8,6.24,"COc1ccc(COC(=O)N[C@@H]2CCCC[C@H]2N[C@H]2CCCN(c3ccc(C#N)cc3)C2)cc1 [Example 34, 4-Methoxybenzyl (1R,2R)-2-((S)-1-(4-cyanophenyl)piperidin-3-ylamino)cyclohexylcarbamate]"
9,6.21,"N#Cc1ccc(N2CCC[C@H](N[C@@H]3CCCC[C@H]3NC(=O)Nc3cccc(O)c3)C2)cc1 [Example 36, 1-((1R,2R)-2-((S)-1-(4-Cyanophenyl)piperidin-3-ylamino)cyclohexyl)-3-(3-hydroxyphenyl)urea]"
10,5.85,"O=C(N[C@@H]1CCCC[C@H]1N[C@H]1CCCN(c2ccc(-c3nc4ccccc4o3)cc2)C1)OCc1ccccc1 [Example 43, Benzyl (1R,2R)-2-((S)-1-(4-(benzo[d]oxazol-2-yl)phenyl)piperidin-3-ylamino)cyclohexylcarbamate]"
11,5.84,"N#Cc1cc(N2CCC[C@H](N[C@@H]3CCCC[C@H]3NC(=O)Nc3ccccc3)C2)ccn1 [Example 45, 1-((1R,2R)-2-((S)-1-(2-Cyanopyridin-4-yl)piperidin-3-ylamino)cyclohexyl)-3-phenylurea]"
12,5.54,"O=C(Nc1ccccc1)N[C@@H]1CCCC[C@H]1N[C@H]1CCCN(c2ccc([N+](=O)[O-])cc2)CC1 [Example 52, 1-((1R,2R)-2-((S)-1-(4-Nitrophenyl)azepan-4-ylamino)cyclohexyl)-3-phenylurea]"
13,5.44,"N#Cc1ccc(N2CCC[C@H](N[C@@H]3CCCC[C@H]3NC(=O)Nc3ccc(C(F)(F)F)cc3)C2)cc1 [Example 56, 1-((1R,2R)-2-((S)-1-(4-Cyanophenyl)piperidin-3-ylamino)cyclohexyl)-3-(4-(trifluoromethyl)phenyl)urea]"
14,8.00,"C[C@]1(N[C@@H]2CCCC[C@H]2NC(=O)OCc2ccccc2)CCCN(c2ccc([N+](=O)[O-])cc2)C1 [Example 58, Benzyl (1R,2R)-2-((S)-3-methyl-1-(4-nitrophenyl)piperidin-3-ylamino)cyclohexylcarbamate]"
15,6.29,Cc1ccc(COC(=O)N[C@@H]2CCCC[C@H]2N[C@H]2CCCN(c3ccc(C(F)(F)F)cc3)C2)cc1 [Example 63]
16,5.63,O=C(Nc1cc(C(F)(F)F)cc(C(F)(F)F)c1)N[C@@H]1CCCC[C@H]1N[C@H]1CCCN(c2ccc(C(F)(F)F)cc2)C1 [Example 89]
